Legend:
[1] = tested on: MDMA-AT trial participants (MAPP1 and MAPP2); assay: MPLONG long-term follow-up: CAPS-5 durability, responder analysis, relapse; assay type: in vivo, human
Source text: MPLONG is an observational long-term follow-up study for MDMA-AT trial participants intended to provide data on treatment durability as measured by the CAPS-5 and Sheehan Disability Scale (SDS). Participants who elect to enroll in MPLONG completed a LTFU visit at least 6 months following their completion of the parent study. MPLONG opened for enrollment 8 months following the last subject visit of the MAPP1 trial and MAPP1 participants entered MPLONG unblinded to their treatment assignment. Enrollees from the second Phase 3 trial MAPP2, however, complete LTFU with blinding maintained.
A sensitivity analysis was conducted to determine whether there was a detectable difference in the observed trend dependent on the time elapsed since the parent study (Table 47 (Table 47 (Table 47). There was no observable impact of the time window, as durability was maintained in both those with LFTU within a year and those with LTFU greater than 12 months after study termination.

dogs = assay: Daily 28-day repeated dose toxicology study, dogs; assay type: in vivo, dog; conditions: 0, 3, 9, or 15 mg/kg/day, daily 28 days
Method: Based on negative in vivo and in vitro genotoxicity studies, the carcinogenic risk of MDMA·HCl is low. No tumors were reported after daily 28-day repeated dose toxicology studies of MDMA in rats (0, 10, 50, or 100 mg/kg/day) or dogs (0, 3, 9, or 15 mg/kg/day).

[2] = target: organic cation transporter (OCT1) (Homo sapiens, UniProt O15245); assay: Transporter inhibition, OCT1; conditions: at supratherapeutic concentrations
Chain of organic cation transporter (OCT1) (O15245 whole entry): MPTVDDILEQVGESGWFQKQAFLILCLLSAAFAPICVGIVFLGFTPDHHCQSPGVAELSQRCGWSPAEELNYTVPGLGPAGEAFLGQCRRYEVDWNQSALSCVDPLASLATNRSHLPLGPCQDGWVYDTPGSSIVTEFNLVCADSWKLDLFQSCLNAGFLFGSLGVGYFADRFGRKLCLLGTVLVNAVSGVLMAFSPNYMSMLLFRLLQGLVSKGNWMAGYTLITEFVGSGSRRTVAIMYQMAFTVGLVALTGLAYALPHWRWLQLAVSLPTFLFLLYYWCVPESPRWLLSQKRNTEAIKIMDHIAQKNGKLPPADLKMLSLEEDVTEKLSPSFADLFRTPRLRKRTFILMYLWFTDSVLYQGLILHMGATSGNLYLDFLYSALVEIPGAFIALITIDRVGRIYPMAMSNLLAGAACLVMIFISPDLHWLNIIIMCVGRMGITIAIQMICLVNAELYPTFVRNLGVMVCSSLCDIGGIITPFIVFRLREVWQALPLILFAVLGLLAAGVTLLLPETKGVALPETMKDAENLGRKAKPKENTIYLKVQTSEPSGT

[3] = single 100 mg dose of MDMA (Segura 2005); cited from earlier work
healthy individuals = assay: Study MPKF: ECG / QTcF; assay type: in vivo, human
Source text: Specifically, there was no change in mean QTcF over time above 10 ms at any timepoint.

rats = assay: 28-day repeat-dose toxicity, weekly oral, rats; conditions: any dose
male and female rats = assay: Fertility study, male and female rats; assay type: in vivo, rat
Method: MDMA (0, 2.5, 5, and 10 mg/kg/day) was orally administered to male and female rats before mating. Males were dosed once daily for 28 days prior to pairing and dosing continued until euthanasia. Females were dosed once daily for 21 days prior to pairing and dosing continued though gestational day seven.

[4] = LTFU visit, MAPP1 and MAPP2, loss of diagnosis at study termination and ≥10 point increase and meeting PTSD diagnostic criteria at LTFU
[5] = LTFU visit, MAPP1 and MAPP2, remission at study termination and >11 CAPS-5 TSS at LTFU
[6] = LTFU visit, MAPP1 and MAPP2, ≤11 CAPS-5 TSS from BL not meeting PTSD diagnostic criteria at LTFU
[7] = LTFU visit, MAPP1 and MAPP2, ≥10 point reduction in CAPS-5 TSS from BL and ≥10 point increase from study termination at LTFU
[8] = LTFU visit, MAPP1 and MAPP2, ≥10 pt reduction in CAPS-5 TSS from BL and not meeting PTSD diagnostic criteria at LTFU
[9] = LTFU visit, MAPP1 and MAPP2, ≥10 pt reduction in CAPS-5 TSS from BL at study termination and LTFU
[10] = MAPP1 and MAPP2, LTFU 6-12 Months
[11] = MAPP1 and MAPP2, LTFU >12 Months
[12] = MAPP1 and MAPP2, Study Termination (last available assessment in parent study)
[13] = MAPP2 participants only, Long Term Follow Up Study Visit 1
[14] = MPLONG, MAPP1 and MAPP2 participants, Visit 1
[15] = MPLONG, MAPP1 and MAPP2 participants, parent study Baseline
[16] = MPLONG, MAPP1 and MAPP2 participants, parent study Visit 8
[17] = MPLONG, MAPP1 and MAPP2 participants, parent study Visit 13
[18] = MPLONG, MAPP1 and MAPP2 participants, parent study Visit 19
[19] = MPLONG, MAPP2 participants only, parent study Baseline
[20] = MPLONG, MAPP2 participants only, parent study Visit 8
[21] = MPLONG, MAPP2 participants only, parent study Visit 13
[22] = MPLONG, MAPP2 participants only, parent study Visit 19
[23] = fasted group, 12-hour timepoint

CNC(C)Cc1ccc2c(c1)OCO2 (stereo not shown) [MDMA, 3,4-methylenedioxymethamphetamine]
Relapse after Loss of Diagnosis, Does not meet criteria, % [1, 4]: (93.8) % | Relapse after Loss of Diagnosis, Meets criteria, % [1, 4]: (6.2) % | Relapse of Remission, Does not meet criteria, % [1, 5]: (95.4) % | Relapse of Remission, Meets criteria, % [1, 5]: (4.6) % | Durable Remission, Does not meet criteria, % [1, 6]: (40.0) % | Durable Remission, Meets criteria, % [1, 6]: (60.0) % | Relapse after Treatment Response, Does not meet criteria, % [1, 7]: (93.8) % | Relapse after Treatment Response, Meets criteria, % [1, 7]: (6.2) % | Durable Loss of Diagnosis, Does not meet criteria, % [1, 8]: (16.9) % | Durable Loss of Diagnosis, Meets criteria, % [1, 8]: (83.1) % | Durable Treatment Response, Does not meet criteria, % [1, 9]: (10.8) % | Durable Treatment Response, Meets criteria, % [1, 9]: (89.2) % | loss of diagnosis at LTFU ([1]; MAPP1 and MAPP2): 83.1% | met the definition of treatment response at LTFU ([1]; MAPP1 and MAPP2): 89.2% | relapse following remission ([1]; MAPP1 and MAPP2): 4.6% | relapse following treatment response or loss of diagnosis ([1]; MAPP1 and MAPP2): 12.3% | remission at LTFU ([1]; MAPP1 and MAPP2): 60% | CAPS-5 Total Severity Score, Actual, Mean [1, 10]: 11.9 | CAPS-5 Total Severity Score, Actual, Median [1, 10]: 9.0 | CAPS-5 Total Severity Score, Change from Study Termination, Mean [1, 10]: −3.7 | CAPS-5 Total Severity Score, Change from Study Termination, Median [1, 10]: −2.5 | CAPS-5 Total Severity Score, Actual, Mean [1, 11]: 11.2 | CAPS-5 Total Severity Score, Actual, Median [1, 11]: 6.0 | CAPS-5 Total Severity Score, Change from Study Termination, Mean [1, 11]: −5.9 | CAPS-5 Total Severity Score, Change from Study Termination, Median [1, 11]: −5.0 | CAPS-5 Total Severity Score, Actual, Mean [1, 12]: 16.4 | CAPS-5 Total Severity Score, Actual, Median [1, 12]: 15.0 | mean change from baseline (CFB) in CAPS-5 scores at LTFU ([1]; MAPP2 parent study): −28.7 | CAPS-5 Total Severity Score, Actual, Mean [1, 13]: 10.7 | CAPS-5 Total Severity Score, Actual, Median [1, 13]: 8.5 | CAPS-5 Total Severity Score, CFB, Mean [1, 13]: −28.7 | CAPS-5 Total Severity Score, CFB, Median [1, 13]: −30.5 | CAPS-5 Total Severity Score, Actual, Mean [1, 14]: 11.5 | CAPS-5 Total Severity Score, Actual, Median [1, 14]: 8.0 | CAPS-5 Total Severity Score, CFB, Mean [1, 14]: −29.2 | CAPS-5 Total Severity Score, CFB, Median [1, 14]: −31.0 | CAPS-5 Total Severity Score, Actual, Mean [1, 15]: 40.8 | CAPS-5 Total Severity Score, Actual, Median [1, 15]: 40.0 | CAPS-5 Total Severity Score, Actual, Mean [1, 16]: 29.5 | CAPS-5 Total Severity Score, Actual, Median [1, 16]: 31.0 | CAPS-5 Total Severity Score, CFB, Mean [1, 16]: −11.3 | CAPS-5 Total Severity Score, CFB, Median [1, 16]: −12.0 | CAPS-5 Total Severity Score, Actual, Mean [1, 17]: 22.0 | CAPS-5 Total Severity Score, Actual, Median [1, 17]: 23.0 | CAPS-5 Total Severity Score, CFB, Mean [1, 17]: −18.8 | CAPS-5 Total Severity Score, CFB, Median [1, 17]: −19.0 | CAPS-5 Total Severity Score, Actual, Mean [1, 18]: 15.9 | CAPS-5 Total Severity Score, Actual, Median [1, 18]: 14.0 | CAPS-5 Total Severity Score, CFB, Mean [1, 18]: −24.8 | CAPS-5 Total Severity Score, CFB, Median [1, 18]: −27.0 | CAPS-5 Total Severity Score, Actual, Mean [1, 19]: 39.4 | CAPS-5 Total Severity Score, Actual, Median [1, 19]: 38.5 | CAPS-5 Total Severity Score, Actual, Mean [1, 20]: 28.1 | CAPS-5 Total Severity Score, Actual, Median [1, 20]: 30.5 | CAPS-5 Total Severity Score, CFB, Mean [1, 20]: −11.3 | CAPS-5 Total Severity Score, CFB, Median [1, 20]: −12.0 | CAPS-5 Total Severity Score, Actual, Mean [1, 21]: 19.7 | CAPS-5 Total Severity Score, Actual, Median [1, 21]: 18.0 | CAPS-5 Total Severity Score, CFB, Mean [1, 21]: −19.8 | CAPS-5 Total Severity Score, CFB, Median [1, 21]: −22.0 | CAPS-5 Total Severity Score, Actual, Mean [1, 22]: 14.8 | CAPS-5 Total Severity Score, Actual, Median [1, 22]: 12.0 | CAPS-5 Total Severity Score, CFB, Mean [1, 22]: −24.5 | CAPS-5 Total Severity Score, CFB, Median [1, 22]: −27.0 | tumors (dogs): No tumors | inhibition of OCT1 [2]: inhibits | increase of AUC0-8 hr of paroxetine (20 mg) [3]: 3 fold | increase of Cmax of paroxetine (20 mg) [3]: 2.5 fold | change in mean QTcF over time (healthy individuals; any timepoint): ≤ 10 ms | participants with mean QTcF increase from baseline above 30 ms (healthy individuals; [23]): 6.3% | participants with mean QTcF increase from baseline above 30 ms, n (healthy individuals; [23]): 1 participant | impact on ECG parameters (healthy individuals; in vivo): no significant impact | QTcF intervals (healthy individuals; no participant above, any group): ≤ 450 ms | neurohistopathology of the brain (rats): No morphologic changes | mean prostate gland weights (male and female rats; all MDMA-treated males relative to controls): decreased | fertility and reproductive performance (male and female rats; oral, up to the highest dose evaluated (10 mg/kg/day)): No effect on fertility and reproductive performance
